One assay relates to TRAF3. In words: Western blot for TRAF3 protein level. It is filed as cell-based. As to conditions: DLD-1 cells; BS-1 100 ng/ml or TNFα 20 ng/ml. The protocol:
(§1) DLD-1 and WiDr adenocarcinoma cell lines were obtained from ATCC (Manassas, Va.), and cultured in MEM Earle's medium supplemented with 10% FBS. Antibodies against LTβR (N-15), TRAF3 (H-20 and H-122), TRAF2 (H-249), and NFκB2 (C-5) were obtained from Santa Cruz Biotechnology (Santa Cruz, Calif.). Antibodies against phosphorylated IκBα (5A5), phosphorylated RelA, and NIK were purchased from Cell Signaling Technologies (Beverly, Mass.).
Cells were treated for 10 minutes at 37° C. with media or activating antibody (BS-1) and washed twice in ice-cold PBS with protease and phosphatase inhibitors, followed by lysis by scraping in ice-cold lysis buffer [50 mM PIPES pH 6.8, 100 mM KCl, 2 mM MgCl2, 1 mM EGTA, 0.2% NP-40, and 10% Glycerol, supplemented with Complete EDTA-free protease inhibitor cocktail (Roche, Indianapolis, Ind.), 10 mM Sodium Fluoride, and 100 μM Sodium Orthovanadate]. Lysates were centrifuged at 14000 RPM for 30 minutes at 4° C., and supernatants were pre-cleared with normal goat IgG-agarose beads (Sigma, St. Louis, Mo.) by incubating on a rotator at 4° C. […] Blots were developed using SuperSignal chemiluminescent detection substrates (Pierce), and detected on Biomax X-ray films (Kodak, Rochester, N.Y.) and/or directly on a Kodak ImageStation 2000R luminescence detector. […]
(A western blot detects proteins with antibodies after separation by electrophoresis.)

The subject of another assay is canonical NFκB1 pathway. Put plainly: Western blot for phosphorylated IκBα and RelA (canonical NFκB1 activation). It is filed as cell-based. The conditions noted are these: DLD-1 and WiDr cells, TNFα 20 ng/ml. The protocol:
as §1
LTβR was activated using 100 ng/ml of a humanized bi-specific, activating antibody (BS-1) developed at Biogen Idec, Inc. TNFα was used at a concentration of 20 ng/ml. During stimulation, cells were kept in a 37° C. incubator for indicated times.
Cells were treated for 10 minutes at 37° C. with media or activating antibody (BS-1) and washed twice in ice-cold PBS with protease and phosphatase inhibitors, followed by lysis by scraping in ice-cold lysis buffer [50 mM PIPES pH 6.8, 100 mM KCl, 2 mM MgCl2, 1 mM EGTA, 0.2% NP-40, and 10% Glycerol, supplemented with Complete EDTA-free protease inhibitor cocktail (Roche, Indianapolis, Ind.), 10 mM Sodium Fluoride, and 100 μM Sodium Orthovanadate]. […] Blots were developed using SuperSignal chemiluminescent detection substrates (Pierce), and detected on Biomax X-ray films (Kodak, Rochester, N.Y.) and/or directly on a Kodak ImageStation 2000R luminescence detector.

Consider TNFα, for which, in the assay with TRAF3, the “TRAF3 level after stimulation” value is “increases the levels of TRAF3”. Moreover, the “activation of NFκB1” value in the assay on canonical NFκB1 pathway is “identical in both cell-lines”.
